Consider three compounds from patent US20220323401A1, “FORMULATIONS OF CANNABINOIDS FOR THE TREATMENT OF ACNE” (priority 2017, published 2022).

The nature of data set [1]: Discoloration of CBD solutions and formulations. As to conditions: by end of day 1. The format is physicochemical. The text has this:
The CBD2 material dissolved like the CBD1 therefore the CBD2 is CBD without the discoloration properties of CBD1.

Data set [2] has as its system anandamide. As to conditions: rat basophilic leukemia cells; cited from earlier work.
The test system of data set [3] is sensitized guinea-pigs. To be noted: 1 mg/kg i.v.; cited from earlier work.
Data set [4] deals with T1, human vanilloid receptor type 1 (VR1) (Homo sapiens, UniProt Q8NER1).
T1 construct: host or cells: HEK cells transfected with hVR1 (HEK-hVR1)
T1 sequence (Q8NER1 whole entry): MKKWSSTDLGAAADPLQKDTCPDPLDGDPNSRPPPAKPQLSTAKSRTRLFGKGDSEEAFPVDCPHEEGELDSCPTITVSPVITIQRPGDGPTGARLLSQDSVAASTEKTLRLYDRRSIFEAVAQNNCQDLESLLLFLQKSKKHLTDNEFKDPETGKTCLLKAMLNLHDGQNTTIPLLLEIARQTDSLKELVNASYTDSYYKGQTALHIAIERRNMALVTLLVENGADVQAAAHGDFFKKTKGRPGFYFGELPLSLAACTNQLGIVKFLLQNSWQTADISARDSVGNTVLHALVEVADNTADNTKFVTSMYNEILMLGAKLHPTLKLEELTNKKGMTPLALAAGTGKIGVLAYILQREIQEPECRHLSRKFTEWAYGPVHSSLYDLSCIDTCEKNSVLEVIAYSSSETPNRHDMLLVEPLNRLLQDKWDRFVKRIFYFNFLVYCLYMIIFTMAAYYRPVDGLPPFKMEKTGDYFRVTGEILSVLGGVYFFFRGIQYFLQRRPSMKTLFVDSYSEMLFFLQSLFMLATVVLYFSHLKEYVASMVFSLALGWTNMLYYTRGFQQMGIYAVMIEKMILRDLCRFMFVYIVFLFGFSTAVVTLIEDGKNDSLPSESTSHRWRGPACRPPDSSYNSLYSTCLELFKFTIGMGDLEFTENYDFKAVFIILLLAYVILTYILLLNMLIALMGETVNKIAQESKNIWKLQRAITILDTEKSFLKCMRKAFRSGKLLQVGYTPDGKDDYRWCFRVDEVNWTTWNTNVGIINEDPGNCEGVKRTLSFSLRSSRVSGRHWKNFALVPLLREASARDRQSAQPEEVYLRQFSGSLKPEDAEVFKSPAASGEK
To be noted: HEK-hVR1 transfected cells; cited from earlier work.

Data set [5] can be described thus: Initial solubility studies of CBD in solvents. The format is physicochemical. As to the method:
First, the solubility of cannabidiol (CBD) was assessed. The powder looked granulated under the microscope. […] The conclusions from the solubility studies were that OA and IPA were very good solvents and it was surprising that IPA was so much better than ethanol.
Solubility studies: CBD dissolved at the 10% level in AE and barely 9.5% in IPM. Further exploration was not conducted due to the small amount of drug API available for non-GMP work. CBD is soluble greater than 10% but probably not in excess of 20%, as the time to dissolve additional CBD was taking considerably longer.

For data set [6] the following is noted: in ethanol, reported value; cited from earlier work.
Data set [7] concerns rats. As to conditions: 5 mg/kg i.v. once daily for 4 weeks; cited from earlier work.
Data set [8] has as its system immortalized human sebocytes. To be noted: cited from earlier work.

For the compound `C=C(C)[C@@H]1CCC(C)=C[C@H]1c1c(O)cc(CCCCC)cc1O` [CBD1], the discoloration of solution result in data set [1] is recorded as “colored by the end of the day”.
For the compound `C=C(C)C1CCC(C)=CC1c1c(O)cc(CCCCC)cc1O` (stereo not shown) [CBD, 2-[3-methyl-6-(1-methylethenyl)-2-cyclohexen-1-yl]-5-pentyl-1,3-benzenediol], the effect on anandamide result in data set [2] is “inhibit anandamide”. In addition, the ovalbumin-induced airway obstruction entry in data set [3] is “attenuated ovalbumin-induced airway obstruction”. In data set [4], the “stimulation of human VR1” value was “maximum effect similar in efficacy to that of capsaicin”. Further, the “solubility of CBD” value in data set [5] (in arlamol E (AE), probably not in excess of 20%) is on record as “greater than 10%”; in data set [5] (in isopropyl myristate (IPM)), approximately 9.5%; in data set [5] (weight to weight, in ethanol), 6-7%; in data set [5] (weight to weight, in hexamethyldisiloxane (HDS)), 3-4%; in data set [5] (weight to weight, in isopropyl alcohol (IPA)), “greater than 14%”; in data set [5] (weight to weight, in mineral oil), 3-4%. For the same compound, the “solubility of CBD” value in data set [5] (weight to weight, in oleyl alcohol (OA), did not go higher) is recorded as “greater than 8%”; in data set [5] (weight to weight, in propylene glycol (PG)), 6-7%. Moreover, the “reported solubility of CBD” value in data set [6] was 3.5%. Besides, the “cardiac inflammation produced by doxorubicin” value in data set [7] is “attenuated cardiac inflammation produced by doxorubicin”. In addition, in data set [8], the effects on sebocytes result is “lipostatic, anti-proliferative, and anti-inflammatory effects”.
As to `C=C(C)[C@@H]1CCC(C)=C[C@H]1c1c(O)cc(CCCCC)cc1O` [CBD2], the discoloration of solution result in data set [1] was “None of the CBD2 solutions were colored at the end of day 1”.
